The text below walks through data of patent US11377442B2, “Small molecule agonists and antagonists of NR2F6 activity” (ZANDER THERAPEUTICS, INC., priority 2016, dated 2022).

The target in the assay is T1, NR2F6 (Homo sapiens, UniProt P10588).
T1 construct: expressed in transfected cells; also transient transfection
T1 sequence (P10588 1-404): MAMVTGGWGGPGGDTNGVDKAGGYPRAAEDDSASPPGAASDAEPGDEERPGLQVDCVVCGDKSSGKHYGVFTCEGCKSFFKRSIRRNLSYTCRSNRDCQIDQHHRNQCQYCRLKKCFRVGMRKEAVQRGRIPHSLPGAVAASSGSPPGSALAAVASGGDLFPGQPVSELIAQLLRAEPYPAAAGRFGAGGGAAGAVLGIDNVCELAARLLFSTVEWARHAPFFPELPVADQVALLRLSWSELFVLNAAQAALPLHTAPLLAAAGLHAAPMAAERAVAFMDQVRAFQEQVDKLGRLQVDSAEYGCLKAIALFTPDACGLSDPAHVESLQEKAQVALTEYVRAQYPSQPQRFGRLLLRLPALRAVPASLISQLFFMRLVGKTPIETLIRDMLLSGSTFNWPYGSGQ
Description: NR2F6 agonist screening, Firefly signal cmpd/DMSO. The format is cell-based. On the set-up: Firefly NR2F6 full length, cmpd/DMSO (mean) / Firefly F4, cmpd/DMSO (mean): unit of the concentration uncertain. To be noted: for Firefly/Renilla (NR2F6 stable, clone F4): ratio Firefly/Renilla; for Firefly, NR2F6 stable (clone F4)/pGL4: ratio of Firefly in NR2F6 stable clone F4 to pGL4.

[1] abbreviates: C11 analogs follow set (Tables 2-10), repeat 1.
Where [2] appears, read: C11 analogs follow set (Tables 2-10), repeat 2.
Where [3] appears, read: Concentration 2 (unit uncertain).
The mark [4] stands for this setting: Concentration 10 (unit uncertain).
Setting [5] is: Concentration 40 (unit uncertain).

SMILES strings stand for the structures. Read-outs that look alike come from different tables or passages of the source.

`Cc1ccc(S(=O)(=O)c2cc3cc(C(=O)NCCc4ccccc4)ccc3oc2=O)cc1` [Compound C112]: the “Firefly, cmpd/DMSO repeat 1” value is recorded as 11.7 under setting [1] and 11.7 (Table 12, repeat 1). Besides, the “Firefly, cmpd/DMSO repeat 2” value is, setting by setting: under setting [2], 10.1; (Table 12, repeat 2) 10.1. Besides, the “Firefly/Renilla (NR2F6 stable, clone F4)” value (Table 12) was 2.0. For the same compound, the “Firefly, NR2F6 stable (clone F4)/pGL4” value (Table 12) is 4.1.
`Cc1ccc(S(=O)(=O)c2cc3ccccc3oc2=O)cc1` [Compound C100]: the “Firefly, cmpd/DMSO repeat 1” value under setting [1] was determined as 2.0. The “Firefly, cmpd/DMSO repeat 2” value under setting [2] turned out to be 1.9.
On the same counts, the results for `COc1ccc2cc(S(=O)(=O)c3ccc(C)cc3)c(=O)oc2c1` [Compound C265] are 1.0 and 1.3.
For `CCOc1ccc(S(=O)(=O)c2cc3cccc(OCC)c3oc2=O)cc1` [Compound C252], the “Firefly, cmpd/DMSO repeat 1” value (Table 9, repeat 1) worked out at 3.2. Also, the “Firefly, cmpd/DMSO repeat 2” value (Table 9, repeat 2) stood at 2.4.
Take `O=c1oc2c(F)cc(F)cc2cc1S(=O)(=O)c1ccc(Br)cc1` [Compound C290]: the “Firefly, cmpd/DMSO repeat 1” value (Table 11, repeat 1) is on record as 13.8. For the same compound, where the note is “Table 11, repeat 2”, the “Firefly, cmpd/DMSO repeat 2” value came to 14.6.
Turning to `O=c1oc2ccc(Cl)cc2cc1S(=O)(=O)c1ccc(Cl)cc1` [Compound C147], the “Firefly, cmpd/DMSO repeat 1” value under setting [1] was determined as 2.6. Further, the “Firefly, cmpd/DMSO repeat 2” value under setting [2] was determined as 2.9.
For `COc1ccc(S(=O)(=O)c2cc3cc(OC)ccc3oc2=O)cc1` [Compound C207], in that order: 2.5 and 2.8.
Regarding `O=C(Nc1ccc(F)cc1)c1ccc2oc(=O)c(S(=O)(=O)c3ccc(F)cc3)cc2c1` [Compound C159], the “Firefly, cmpd/DMSO repeat 1” value under setting [1] worked out at 0.9. Also, the “Firefly, cmpd/DMSO repeat 2” value under setting [2] is recorded as 1.2.
Take `COc1cccc(S(=O)(=O)c2cc3cc(Cl)ccc3oc2=O)c1` [Compound C184]: under setting [1], the “Firefly, cmpd/DMSO repeat 1” value is 1.1. Also, under setting [2], the “Firefly, cmpd/DMSO repeat 2” value turned out to be 1.4.
As to `CCOc1cccc2cc(S(=O)(=O)c3ccccc3F)c(=O)oc12` [Compound C254], the “Firefly, cmpd/DMSO repeat 1” value by setting is: (Table 9, repeat 1) 7.6; (Table 12, repeat 1) 7.6. For the same compound, the “Firefly, cmpd/DMSO repeat 2” value came out at 5.1 (Table 9, repeat 2) and 5.1 (Table 12, repeat 2). Further, the “Firefly/Renilla (NR2F6 stable, clone F4)” value (Table 12) came out at 2.4. Further, the “Firefly, NR2F6 stable (clone F4)/pGL4” value (Table 12) is listed as 4.4.
Regarding `Cc1ccc(S(=O)(=O)c2cc3ccccc3oc2=O)cc1C` [Compound C104], under setting [1], the “Firefly, cmpd/DMSO repeat 1” value is listed as 3.1. Further, the “Firefly, cmpd/DMSO repeat 2” value under setting [2] stood at 4.4.
In the case of `COc1ccc(CNC(=O)c2ccc3oc(=O)c(S(=O)(=O)c4ccc(F)cc4)cc3c2)cc1` [Compound C117], the “Firefly, cmpd/DMSO repeat 1” value under setting [1] turned out to be 17.3. Besides, under setting [2], the “Firefly, cmpd/DMSO repeat 2” value was 24.1.
For `COc1cccc(S(=O)(=O)c2cc3cccc(OC)c3oc2=O)c1` [Compound C226], the “Firefly, cmpd/DMSO repeat 1” value (Table 9, repeat 1) is recorded as 1.1. In addition, under “Table 9, repeat 2”, the “Firefly, cmpd/DMSO repeat 2” value came out at 1.0.
In the case of `Cc1ccc(NC(=O)c2ccc3oc(=O)c(S(=O)(=O)c4ccc(Cl)cc4)cc3c2)c(C)c1` [Compound C166], the “Firefly, cmpd/DMSO repeat 1” value under setting [1] is 3.4. Also, under setting [2], the “Firefly, cmpd/DMSO repeat 2” value is listed as 4.2.
On to `Cc1ccc(S(=O)(=O)c2cc3cc(Cl)ccc3oc2=O)cc1` [Compound C202], for which the “Firefly, cmpd/DMSO repeat 1” value by setting is: under setting [1], 15.7; (Table 12, repeat 1) 15.7. Besides, the “Firefly, cmpd/DMSO repeat 2” value reads like this: under setting [2], 14.1; (Table 12, repeat 2) 14.1. For the setting “Table 12”, the “Firefly/Renilla (NR2F6 stable, clone F4)” value stood at 1.7. In addition, the “Firefly, NR2F6 stable (clone F4)/pGL4” value (Table 12) was determined as 6.1.
Consider `COc1ccc2oc(=O)c(S(=O)(=O)c3ccc(F)c(Cl)c3)cc2c1` [Compound C158], for which, under setting [1], the “Firefly, cmpd/DMSO repeat 1” value is 1.5. Moreover, the “Firefly, cmpd/DMSO repeat 2” value under setting [2] was determined as 1.2.
For `O=c1oc2ccc(Br)cc2cc1S(=O)(=O)c1cccc(F)c1` [Compound C183], in that order: 1.2 and 1.2.
`CCOc1cccc2cc(S(=O)(=O)c3ccc(F)c(C)c3)c(=O)oc12` [Compound C258]: the “Firefly, cmpd/DMSO repeat 1” value (Table 9, repeat 1) amounted to 1.5. The “Firefly, cmpd/DMSO repeat 2” value (Table 9, repeat 2) worked out at 1.8.
With `COc1ccc2oc(=O)c(S(=O)(=O)c3cccc(Cl)c3)cc2c1` [Compound C222], the “Firefly, cmpd/DMSO repeat 1” value was 4.5 under setting [1] and 4.5 (Table 13, repeat 1). Also, the “Firefly, cmpd/DMSO repeat 2” value runs as follows: under setting [2], 3.7; (Table 13, repeat 2) 3.7. For the same compound, the “Firefly/Renilla (NR2F6 stable, clone F4)” value (Table 13) is recorded as 2.0. Besides, the “Firefly, NR2F6 stable (clone F4)/pGL4” value (Table 13) turned out to be 3.6.
Regarding `COc1cc(Br)cc2cc(S(=O)(=O)c3ccc(F)cc3)c(=O)oc12` [Compound C295], under “Table 11, repeat 1”, the “Firefly, cmpd/DMSO repeat 1” value was determined as 4.0. Moreover, where the note is “Table 11, repeat 2”, the “Firefly, cmpd/DMSO repeat 2” value amounted to 4.6.
Regarding `COc1ccc(OC)c(S(=O)(=O)NCc2nc3nc(C)cc(C)n3n2)c1` [Compound E4], the “Firefly F4, cmpd/DMSO (mean)” value reads like this: under setting [3], 0.9; under setting [4], 0.9; under setting [5], 0.8. In addition, the “Firefly NR2F6 full length, cmpd/DMSO (mean)” value under setting [3] amounted to 1.1; the “Firefly NR2F6 full length, cmpd/DMSO (mean)” value under setting [4] amounted to 1.0; the “Firefly NR2F6 full length, cmpd/DMSO (mean)” value under setting [5] is 1.0.
Turning to `COc1cc(NC(=O)c2ccc3oc(=O)c(S(=O)(=O)c4ccccc4)cc3c2)cc(OC)c1` [Compound C130], the “Firefly, cmpd/DMSO repeat 1” value under setting [1] worked out at 2.3. Moreover, under setting [2], the “Firefly, cmpd/DMSO repeat 2” value is listed as 3.4.
As for `COc1ccc2oc(=O)c(S(=O)(=O)c3ccc(F)c(C)c3)cc2c1` [Compound C225], under setting [1], the “Firefly, cmpd/DMSO repeat 1” value came to 1.5. Further, under setting [2], the “Firefly, cmpd/DMSO repeat 2” value is on record as 3.1.
Consider `CCOC(=O)c1cnc2c(C)cc(C)cc2c1NCCCN(C)C` [Compound D28], for which the “Firefly, cmpd/DMSO (mean)” value (mean of repeats) is 12.8. The “Firefly, cmpd repeat 1” value (raw signal, repeat 1) is 784. Also, the “Firefly, cmpd repeat 2” value (raw signal, repeat 2) stood at 644. Moreover, the “Firefly, cmpd/DMSO repeat 1” value (repeat 1) came out at 14.1. Further, the “Firefly, cmpd/DMSO repeat 2” value (repeat 2) is given as 11.7.
`COc1ccc(-c2noc(Cn3ncc(C)c(C)c3=O)n2)cc1` [Compound Z140]: the “Firefly, cmpd/DMSO (mean)” value came out at 1.2.
Take `O=C(NCCc1ccccc1)c1ccc2oc(=O)c(S(=O)(=O)c3ccc(Cl)cc3)cc2c1` [Compound C114]: under setting [1], the “Firefly, cmpd/DMSO repeat 1” value is 4.5. For the same compound, under setting [2], the “Firefly, cmpd/DMSO repeat 2” value was 4.7.
For `COc1ccccc1NC(=O)c1ccc2oc(=O)c(S(=O)(=O)c3ccc(F)cc3)cc2c1` [Compound C124], the “Firefly, cmpd/DMSO repeat 1” value under setting [1] came to 25.5. Further, the “Firefly, cmpd/DMSO repeat 2” value under setting [2] is 29.8.
On to `O=c1oc2ccc(F)cc2cc1S(=O)(=O)c1ccc(F)cc1` [Compound C213], for which the “Firefly, cmpd/DMSO repeat 1” value under setting [1] amounted to 14.0 and the “Firefly, cmpd/DMSO repeat 1” value (Table 13, repeat 1) came out at 14.0. The “Firefly, cmpd/DMSO repeat 2” value worked out at 13.6 under setting [2] and 13.6 (Table 13, repeat 2). Moreover, the “Firefly/Renilla (NR2F6 stable, clone F4)” value (Table 13) is recorded as 1.6. Further, the “Firefly, NR2F6 stable (clone F4)/pGL4” value (Table 13) was 9.6.
With `COc1ccc2cc(S(=O)(=O)c3ccccc3F)c(=O)oc2c1` [Compound C280], the “Firefly, cmpd/DMSO repeat 1” value under setting [1] is recorded as 0.6. Besides, the “Firefly, cmpd/DMSO repeat 2” value under setting [2] is listed as 0.6.
`COc1cc(NC(=O)c2ccc3oc(=O)c(S(=O)(=O)c4ccc(Cl)cc4)cc3c2)cc(OC)c1` [Compound C133]: the “Firefly, cmpd/DMSO repeat 1” value under setting [1] is 2.1. In addition, under setting [2], the “Firefly, cmpd/DMSO repeat 2” value is reported as 4.3.
Turning to `COc1cccc2cc(S(=O)(=O)c3ccc(C)c(Cl)c3)c(=O)oc12` [Compound C228], the “Firefly, cmpd/DMSO repeat 1” value (Table 9, repeat 1) is 1.0. Besides, the “Firefly, cmpd/DMSO repeat 2” value (Table 9, repeat 2) was 1.3.
Regarding `Cc1ccc(S(=O)(=O)c2cc3cc(Cl)ccc3oc2=O)cc1C` [Compound C143], the “Firefly, cmpd/DMSO repeat 1” value under setting [1] stood at 15.2. Moreover, the “Firefly, cmpd/DMSO repeat 2” value under setting [2] is on record as 14.5.
For `Cc1cccc(NC(=O)c2ccc3oc(=O)c(S(=O)(=O)c4ccc(Cl)cc4)cc3c2)c1C` [Compound C136], the “Firefly, cmpd/DMSO repeat 1” value reads like this: under setting [1], 22.1; (Table 12, repeat 1) 22.1. Further, the “Firefly, cmpd/DMSO repeat 2” value turned out to be 25.8 under setting [2] and 25.8 (Table 12, repeat 2). Moreover, the “Firefly/Renilla (NR2F6 stable, clone F4)” value (Table 12) amounted to 1.7. Further, the “Firefly, NR2F6 stable (clone F4)/pGL4” value (Table 12) is 8.1.
As for `COC(=O)c1ccc2oc(=O)c(S(=O)(=O)c3ccc(C)cc3)cc2c1` [Compound C13], the “Firefly, cmpd/DMSO repeat 1” value is 14.0 under setting [1] and 14.0 (Table 12, repeat 1). The “Firefly, cmpd/DMSO repeat 2” value turned out to be 12.9 under setting [2] and 12.9 (Table 12, repeat 2). In addition, the “Firefly/Renilla (NR2F6 stable, clone F4)” value (Table 12) is given as 1.8. Also, the “Firefly, NR2F6 stable (clone F4)/pGL4” value (Table 12) is on record as 4.2.
As for `O=c1oc2ccc(F)cc2cc1S(=O)(=O)c1ccc(Cl)cc1` [Compound C218], the “Firefly, cmpd/DMSO repeat 1” value by setting is: under setting [1], 18.2; (Table 12, repeat 1) 18.2. For the same compound, the “Firefly, cmpd/DMSO repeat 2” value under setting [2] turned out to be 19.1 and the “Firefly, cmpd/DMSO repeat 2” value (Table 12, repeat 2) turned out to be 19.1. The “Firefly/Renilla (NR2F6 stable, clone F4)” value (Table 12) is given as 1.7. In addition, the “Firefly, NR2F6 stable (clone F4)/pGL4” value (Table 12) came to 9.5.
Regarding `COc1ccc2cc(S(=O)(=O)c3ccc(C(C)(C)C)cc3)c(=O)oc2c1` [Compound C268], the “Firefly, cmpd/DMSO repeat 1” value under setting [1] is 2.8. Moreover, the “Firefly, cmpd/DMSO repeat 2” value under setting [2] is listed as 3.1.
